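Values below derive from 48-hour exposures of cells grown in 96-well plates, with endpoints linearly interpolated between the two concentrations bracketing the appropriate inhibition level. At the GI50, growth is halved. Definition used: TGI = concentration required for complete inhibition of growth.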 Bounds are passed on as bounds.

Common to all, as to assay: NCI tumour cell line growth inhibition, 48 h
Test [1] has as its system IGROV1 ovarian.
Test [2] deals with SW-620 colon.
For test [3], the system named is NCI-H23 lung.
In test [4] the test system is MCF7 breast.
The test system of test [5] is SF-295 CNS.
Test [6] relates to OVCAR-5 ovarian.
The test system of test [7] is T-47D breast.
The subject of test [8] is ACHN renal.
Test [9] has as its system RPMI-8226 leukemia.
For test [10], the system named is NCI-H460 lung.

For `CCOC(=O)Nc1ccc(-c2nc(-c3cccc(OC)c3)c(-c3ccnc(Br)c3)[nH]2)cc1`, the GI50 in test [1] was 2.69 µM; in test [2], 3.19 µM; in test [3], 2 µM; in [4], 2.13 µM; in test [5] it was 0.416 µM; in [6], 3.56 µM. For the same compound, the GI50 in [7] was 1.96 µM; in [8], 2.62 µM; in test [9], 0.794 µM; in test [10] it was 2.79 µM. Moreover, the TGI is 9.03 µM in [1]; over 100 µM in test [2]; 4.75 µM in test [3]; 7.18 µM in test [4]; 2.93 µM in test [5]; over 100 µM in test [6]. Moreover, the TGI was 6.47 µM in test [7], over 100 µM in test [8], 3.49 µM in test [9] and 8.41 µM in test [10].

In the case of `Cn1c(=S)c2[nH]c(SCCN3CCCC3)nc2n(C)c1=O`, the TGI in test [1], in [2], in test [3], in [4], in test [5] and in test [6] was over 100 µM throughout. Moreover, the TGI in test [7], in test [8], in test [9] and in test [10] was over 100 µM throughout.

As for `CCCCC#CC#Cc1cccc(=O)o1`, the GI50 was 30.7 µM in [1]; 18.7 µM in test [2]; 18.4 µM in [3]; 26.1 µM in test [4]; 18.8 µM in test [5]; 22.3 µM in [6]. Moreover, the GI50 in test [7] was 8.34 µM; in [8], 14.6 µM; in [9], 10.5 µM; in [10] it was 20.9 µM. For the same compound, the TGI in [1] is 75.8 µM; in test [2], 53.1 µM; in test [3], 36.2 µM; in test [4], over 100 µM; in test [5], 40 µM; in test [6] it was 46.6 µM. Also, the TGI is 25.7 µM in [7], 28.7 µM in test [8], 90.8 µM in test [9] and over 100 µM in [10].

`COC1=Nc2ccccc2S(=O)(=O)C=C1`: the TGI is 28.1 µM in test [1]; 3.46 µM in test [2]; 21.4 µM in test [3]; 12.3 µM in test [4]; over 88.1 µM in [5]; 31.1 µM in test [6]. Moreover, the TGI is 14.2 µM in test [7], 8.83 µM in test [8], 4.81 µM in test [9] and 37.3 µM in test [10]. In addition, the GI50 in test [2] is 0.875 µM.

Consider `Cc1nc(N)sc1C(=O)Nc1cc(C(=O)NCCCN(C)C)n(C)c1`, for which the GI50 in [1], in test [2], in test [3], in test [4], in test [5] and in test [6] was over 100 µM throughout. Besides, the GI50 in test [7] is 35.7 µM; in [8], over 100 µM; in test [9], 60.1 µM; in [10], over 100 µM. Besides, the TGI in test [1], in [2], in [3], in test [4], in [5] and in test [6] was over 100 µM throughout. For the same compound, the TGI in [7], in test [8], in [9] and in test [10] was over 100 µM in each case.

For `CN(CCCl)c1ccc(/C=C/C2=[N+](C)c3ccccc3C2(C)C)cc1`, the GI50 in test [1] was 1.73 µM; in [2], 0.494 µM; in test [3], 0.434 µM; in test [4], 0.516 µM; in test [5], 0.728 µM; in [6], 3.71 µM. Further, the GI50 in test [7] was 0.706 µM; in test [8], 2.19 µM; in test [9], 0.331 µM; in test [10], 0.679 µM. Further, the TGI in [1] was determined as 18.6 µM; in test [2] it was 14 µM; in [3], 11 µM; in test [4] it was 10.6 µM; in test [5], 5.14 µM; in test [6], 17.1 µM. In addition, the TGI in test [7] was found to be 10.2 µM; in [8] it was 10.6 µM; in test [9], 2.46 µM; in test [10], 10.6 µM.

For `CS(=O)(=O)CCNCc1ccc(-c2ccc3ncnc(Nc4ccc(OCc5ccccc5)c(Cl)c4)c3c2)o1`, the GI50 is 2.8 µM in test [1]; 4.49 µM in [2]; 8.98 µM in test [3]; 5.06 µM in test [4]; 4.94 µM in test [5]; 3.61 µM in [6]. The GI50 in test [7] is 1.1 µM; in [8] it was 0.187 µM; in test [9] it was 5.49 µM; in test [10], 6.07 µM. In addition, the TGI in test [1] was over 21.4 µM; in [2], 8.98 µM; in [3] it was over 25 µM; in test [4], over 13.8 µM; in test [5], 12.1 µM; in [6] it was 18.8 µM. Besides, the TGI was 12.9 µM in [7], over 25 µM in test [8], 13.7 µM in test [9] and over 17.8 µM in test [10].

As to `CCCCCCCCCCCCOC1C(CNC(=O)C2OC3OC(C)(C)OC3C2NC(=O)CN2CCCCCC2)OC2OC(C)(C)OC21` (stereo unspecified), the GI50 was 5.03 µM in test [1]; 3.38 µM in test [2]; 10.9 µM in test [3]; 3.7 µM in test [4]; 6.75 µM in test [5]; 6.44 µM in test [6]. Moreover, the GI50 is 7.78 µM in test [7], 10.7 µM in [8], 3.28 µM in [9] and 5.19 µM in test [10]. The TGI in [1] is 15.2 µM; in test [2], 11.1 µM; in test [3] it was 24.8 µM; in test [4], 14.3 µM; in test [5], 20.4 µM; in test [6], 19.5 µM. Besides, the TGI in test [7] was 22.8 µM; in test [8], 25.3 µM; in test [9] it was 12.5 µM; in [10] it was 18.4 µM.

In the case of `O=C1CCc2c(sc3[nH]c(=S)n(Cc4ccccc4)c(=O)c23)C1`, the GI50 in [1] was 5.11 µM; in [2], 4.2 µM; in test [3] it was 2.79 µM; in test [4], 3.26 µM; in [5], 2.46 µM; in [6] it was 3.67 µM. The GI50 is 2.41 µM in [7], 3.73 µM in [8], 1.18 µM in test [9] and 3.64 µM in test [10]. For the same compound, the TGI is over 100 µM in test [1]; over 100 µM in [2]; 8.6 µM in test [3]; 12.4 µM in test [4]; 7.23 µM in [5]; over 100 µM in test [6]. Also, the TGI in test [7] was 43.9 µM; in test [8], over 100 µM; in test [9] it was 9.79 µM; in test [10], over 100 µM.

`C/C(Cc1ccc(Cl)cc1)=C(/c1ccc(Cl)cc1)c1ccc(OCCN(C)C)cc1`: the GI50 in [1] is 3.73 µM; in test [2], 1.67 µM; in test [3], 4.54 µM; in [4], 1.7 µM; in test [5] it was 5.5 µM; in test [6], 4.79 µM. Besides, the GI50 in test [7] was 3.83 µM; in test [8], 5.12 µM; in test [9], 1.07 µM; in test [10], 1.22 µM. Further, the TGI in [1] turned out to be 8.56 µM; in test [2], 6.1 µM; in [3] it was 9.14 µM; in [4] it was 6.31 µM; in [5], 10.3 µM; in test [6] it was 9.3 µM. In addition, the TGI in test [7] was determined as 9.92 µM; in [8], 9.56 µM; in [9], 3.81 µM; in [10], 4.49 µM.

These data come from PubChem BioAssay (NCI).
